PubChem BioAssay (NCI)
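Exposure lasted 48 hours, with cells grown in 96-well plates and compounds tested at five concentrations. TGI: concentration producing complete growth inhibition.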

Key:
Assay in all cases: NCI-60 cell line screen, 48 h
U251 CNS = system: U251 CNS
LOX IMVI melanoma = system: LOX IMVI melanoma
OVCAR-3 ovarian = system: OVCAR-3 ovarian
HT29 colon = system: HT29 colon
UO-31 renal = system: UO-31 renal
UACC-62 melanoma = system: UACC-62 melanoma
DU-145 prostate = system: DU-145 prostate
HCT-116 colon = system: HCT-116 colon

SMILES	TGI (U251 CNS) [µM]	TGI (LOX IMVI melanoma) [µM]	TGI (OVCAR-3 ovarian) [µM]	TGI (HT29 colon) [µM]	TGI (UO-31 renal) [µM]	TGI (UACC-62 melanoma) [µM]	TGI (DU-145 prostate) [µM]	TGI (HCT-116 colon) [µM]
CNCC(SC)c1ccc(O)c(O)c1 (stereo not drawn)	> 100	84.9	40.9	99.5	> 100	> 100	37.4	43.7
CC12CC(c3ccccc3O1)C(C(=O)Nc1nccs1)C(=O)N2 (stereo not drawn)	> 100	> 100	> 100	> 100	> 100	> 100	> 100	> 100
C[C@H](CCc1nc(C#N)c(N)o1)[C@H]1CC[C@H]2[C@@H]3CCC4C[C@@H](O)CC[C@]4(C)[C@H]3C[C@@H](O)[C@]12C (stereo partly drawn)	26.5	23.8	27.3	27.7	16.6	25.3	28	26.4
CC(=O)c1c(-c2ccco2)c(C#N)c(=S)n(C2OC(CO)C(O)C(O)C2O)c1C (stereo not drawn)	> 100	> 100	> 100	> 100	> 100	> 100	> 100	> 100
C#CC(O)/C=C/C(O)CCCC(O)CC#CC(O)C#CCCCCC(O)/C=C/CCCC(=O)CCCCCCCCCCCCCCCC(O)C(O)C#CC(=O)O (stereo not drawn)	> 25	10.4	–	> 25	> 25	> 25	> 25	> 25
COc1ccc(N=C(C)C(C)=Nc2ccc(OC)cc2)cc1	> 100	> 100	> 100	> 100	> 100	–	> 100	> 100
CC(Cl)(CCC(Cl)C(C)(C)Cl)C(=O)CBr (stereo not drawn)	29.8	5.76	29.5	32.3	22	22.7	33.7	18.2
O=C1OC2(CCCCC2)C(Oc2ccc(Cl)cc2)=C1F	> 100	> 100	> 100	> 100	> 100	> 100	> 100	> 100
COC(=O)[C@@H]1C=CCN1S(=O)(=O)c1ccc(C)cc1	> 100	> 100	> 100	> 100	> 100	> 100	> 100	> 100
COc1ccc(C2C3=C(COC3=O)Oc3cc4c(cc32)OCO4)cc1OC (stereo not drawn)	> 100	> 100	6.05	13	> 100	> 100	> 67.2	> 86.1
COC(=O)CCCc1nc2ccccc2nc1N=Nc1ccccc1	> 100	31.3	> 100	> 100	> 100	> 100	> 100	> 100
CN1CCC(O)(OC(=O)C(c2ccccc2)C2(O)CCCC2)CC1 (stereo not drawn)	> 100	> 100	> 100	> 100	–	> 100	> 100	> 100
Cc1ccc(N=Nc2c(O)ccc3ccccc23)c(C)c1	> 100	> 100	> 100	> 100	> 100	> 100	> 100	> 100
Cc1cc(NS(=O)(=O)c2ccc(Nc3c4ccccc4nc4c(C(=O)NC(CO)(CO)CO)cccc34)cc2)no1	> 100	43.1	> 100	> 100	> 100	75.1	> 100	–
Cc1noc(-c2ccc(C(=O)O)[nH]2)c1Br	> 100	–	> 100	> 100	> 100	> 100	> 100	> 100
O=C(NNC(=O)c1ccc(Cl)cc1NC(=O)C12CC3CC(CC(C3)C1)C2)c1ccc(Cl)cc1	45.4	37.7	58.3	77	33.7	55.8	62.1	58.1
Cc1oc(N)c(S(=O)(=O)/C(C#N)=C/c2ccccc2[N+](=O)[O-])c1C	36.3	28.5	46.3	35.1	30.6	46.9	> 100	78.5
Cc1cc2ccccc2n2c1nc1ccc(O)cc12	> 10	–	> 10	> 10	–	> 10	> 10	> 10
C[C@@H]1C[C@@H]2OC(=O)[C@]3(C)[C@H]2[C@@H](OC3(C)O)[C@]2(C)C(=O)C=C[C@@H]12 (stereo partly drawn)	> 100	43	44.3	35.1	> 100	31.6	> 100	37.6
O=S1(=O)N=C(SCc2c[nH]c3ccccc23)N(c2ccccc2)c2ccncc21	> 100	> 100	> 100	> 100	50	> 100	> 100	> 100
CC(C)(C)N=C1C(=O)C2(C)CCC1C2(C)C (stereo not drawn)	> 100	> 100	> 100	> 100	> 100	34.8	> 100	> 100
C(=Nc1ccc(-c2nc3ccccc3s2)cc1)c1cccs1	> 100	> 100	> 100	> 100	> 100	> 100	> 100	> 100
C=CCCCN(C(=O)c1ccccc1)c1ccc(C(=O)OC)o1	–	> 100	–	> 100	> 100	> 100	> 100	> 100
CCOC(=O)C1=C(N2CCCC2)C(=O)C(C(=O)OCC)C1 (stereo not drawn)	> 100	> 100	> 100	–	> 100	–	–	> 100
O=C(Oc1cncc(Cl)c1)c1cc2ccccc2sc1=O	> 100	> 100	> 100	> 100	> 100	> 100	> 100	> 100
